From US20080146500A1, “Selective Vpac2 Receptor Peptide Agonists” (priority 2004, published 2008)
Ends that are not written are not given here.

Key:
[1] = test system: Normal Wistar rats; assay: Intravenous glucose tolerance test (IVGTT), serum glucose and insulin; type: in vivo, rat
Method: Intravenous glucose tolerance test (IVGTT): Normal Wistar rats are fasted overnight and are anesthetized prior to the experiment. A blood sampling catheter is inserted into the rats. The compound is given in the jugular vein. Blood samples are taken from the carotid artery. A blood sample is drawn immediately prior to the injection of glucose along with the compound. After the initial blood sample, glucose mixed with compound is injected intravenously (i.v.). Compound may also be injected intravenously or subcutaneously prior to the glucose challenge. A glucose challenge of 0.5 g/kg body weight is given, injecting a total of 1.5 mL vehicle with glucose and agonist per kg body weight. The peptide concentrations are varied to produce the desired dose in μg/kg. Blood samples are drawn at 2, 4, 6 and 10 minutes after giving glucose. The control group of animals receives the same vehicle along with glucose, but with no compound added. In some instances, a 30 minute post-glucose blood sample is drawn. Aprotinin is added to the blood sample (250-500 kIU/ml blood). The serum is then analyzed for glucose and insulin using standard methodologies.
The assay uses a formulated and calibrated peptide stock in PBS. Normally, this stock is a prediluted 100 μM stock. However, a more concentrated stock with approximately 1 mg agonist per 1 mL is used. The specific concentration is always known. Variability in the maximal response is mostly due to variability in the vehicle dose.

[2] = test system: ZDF rats; assay: Glucose lowering in conscious food-deprived diabetic ZDF rats; type: in vivo, rat
Method: Glucose lowering in diabetic ZDF rats. ZDF rats, 8-9 weeks old with fed glucose levels of approximately 300 mg/dl are used for this experiment. The animals are randomised into control (vehicle) and treatment group(s) on the day of the experiment and are conscious throughout the experiment. The compound is injected intravenously at the start of the experiment and blood samples are drawn from the tail vein immediately prior to compound injection and then 0.5, 1, 2, 3, 4 and 24 h after compound injection. The animals are deprived of food during the first 2 or 4 h of the experiment. The blood samples are collected in EDTA tubes, aprotinin added and immediately put on ice pending insulin and glucose analysis using standard methods.

[3] = 10 μg/kg iv, 0 h (immediately prior to injection)
[4] = 10 μg/kg iv, 0.5 h after injection
[5] = 10 μg/kg iv, 1 h after injection
[6] = 10 μg/kg iv, 2 h after injection
[7] = 10 μg/kg iv, 4 h after injection (food access after 2 h)
[8] = 10 μg/kg iv, 24 h after injection (food access after 2 h)
[9] = 30 μg/kg iv, 0 h (immediately prior to injection)
[10] = 30 μg/kg iv, 0.5 h after injection
[11] = 30 μg/kg iv, 1 h after injection
[12] = 30 μg/kg iv, 2 h after injection
[13] = 30 μg/kg iv, 4 h after injection (food access after 2 h)
[14] = 30 μg/kg iv, 24 h after injection (food access after 2 h)
[15] = 100 μg/kg iv, 0 h (immediately prior to injection)
[16] = 100 μg/kg iv, 1 h after injection
[17] = 100 μg/kg iv, 2 h after injection
[18] = 100 μg/kg iv, 3 h after injection
[19] = 100 μg/kg iv, 4 h after injection
[20] = 100 μg/kg iv, 24 h after injection (food access after 4 h)

Substance: P137: PEGylated material obtained from P120 and methoxy-PEG2-MAL-40K (HSDAVFTDNYTRLRKQVAAKKYLQSIKNKRYGGPSSGAPPPC; also: PEGylated with methoxy-PEG2-MAL-40K, site not given here) [Agonist P137]
- % increase AUC (insulin, 0-10 min after glucose) ([1]; Dose = 10 μg/kg iv, time between glucose & compound 0 h): +366%
- % increase AUC (insulin, 0-10 min after glucose) ([1]; Dose = 10 μg/kg iv, time between glucose & compound 4 h): +193%
- % increase AUC (insulin, 0-10 min after glucose) ([1]; Dose = 30 μg/kg iv, time between glucose & compound 4 h): +321%
- % increase AUC (insulin, 0-10 min after glucose) ([1]; Dose = 100 μg/kg iv, time between glucose & compound 4 h): +487%
- glucose [2, 3]: 344 mg/dL
- insulin [2, 3]: 12.5 ng/mL
- glucose [2, 4]: 277 mg/dL
- insulin [2, 4]: 21.2 ng/mL
- glucose [2, 5]: 244 mg/dL
- insulin [2, 5]: 18.5 ng/mL
- glucose [2, 6]: 199 mg/dL
- insulin [2, 6]: 20.0 ng/mL
- glucose [2, 7]: 361 mg/dL
- insulin [2, 7]: 18.5 ng/mL
- glucose [2, 8]: 336 mg/dL
- insulin [2, 8]: 15.0 ng/mL
- glucose [2, 9]: 329 mg/dL
- insulin [2, 9]: 10.9 ng/mL
- glucose [2, 10]: 254 mg/dL
- insulin [2, 10]: 27.0 ng/mL
- glucose [2, 11]: 218 mg/dL
- insulin [2, 11]: 23.7 ng/mL
- glucose [2, 12]: 156 mg/dL
- insulin [2, 12]: 23.1 ng/mL
- glucose [2, 13]: 347 mg/dL
- insulin [2, 13]: 20.8 ng/mL
- glucose [2, 14]: 347 mg/dL
- insulin [2, 14]: 16.0 ng/mL
- glucose [2, 15]: 307 mg/dL
- insulin [2, 15]: 17.8 ng/mL
- glucose [2, 16]: 362 mg/dL
- insulin [2, 16]: 19.9 ng/mL
- glucose [2, 17]: 360 mg/dL
- insulin [2, 17]: 15.9 ng/mL
- glucose [2, 18]: 323 mg/dL
- insulin [2, 18]: 15.4 ng/mL
- glucose [2, 19]: 304 mg/dL
- insulin [2, 19]: 15.1 ng/mL
- glucose [2, 20]: 400 mg/dL
- insulin [2, 20]: 11.1 ng/mL
